Measured values published in patent publication US20210363213A1, “GLUCAGON-GLP-1-GIP TRIPLE AGONIST COMPOUNDS” (priority 2013, published 2021).
Read-outs that look alike come from different tables or passages of the source. Numbered stars: 1 amine (or outer) side, 2 acyl side, 3 side chain; on linkers, the order of the positions; unused ones are H or OH. Square brackets hold non-standard residues; d marks the D form. Side chains are listed from the residue outwards. Peptide text beside a SMILES is read from it. * marks the point of attachment. C18 diacid = O=C(O)CCCCCCCCCCCCCCCCC(=O)*; γGlu = O=C(O)[C@H](CCC(=O)[*:2])N[*:1]; Stearoyl = CCCCCCCCCCCCCCCCCC(=O)*; AEEA = NCCOCCOCC(=O)O; Aib = CC(C)(N)C(=O)O

Columns and labels:
human GIP R = molecular target: T1, human GIP R (Homo sapiens, UniProt P48546); experiment: Human GIP receptor (GIP-R) activity assay, cAMP induction (AlphaScreen) in HEK293 cells; type: cell-based; conditions: average EC50, cAMP in HEK293 cells expressing human GIP R, read-out: GIP R (EC50 in nM)
T1 construct: expressed in transfected cells
T1 sequence (P48546 22-466): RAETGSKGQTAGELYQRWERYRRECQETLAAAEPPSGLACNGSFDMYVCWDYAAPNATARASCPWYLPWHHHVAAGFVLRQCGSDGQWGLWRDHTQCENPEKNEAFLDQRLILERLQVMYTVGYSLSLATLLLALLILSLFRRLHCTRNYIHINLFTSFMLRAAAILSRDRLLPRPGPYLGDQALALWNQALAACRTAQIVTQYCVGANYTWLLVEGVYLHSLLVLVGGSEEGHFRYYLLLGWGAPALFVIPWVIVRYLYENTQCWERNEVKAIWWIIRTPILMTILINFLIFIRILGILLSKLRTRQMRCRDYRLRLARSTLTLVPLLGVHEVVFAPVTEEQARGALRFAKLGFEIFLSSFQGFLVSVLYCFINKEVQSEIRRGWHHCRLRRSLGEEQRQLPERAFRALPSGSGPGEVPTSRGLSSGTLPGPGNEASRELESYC
Method: (§1) Briefly, HEK293 cells expressing the human GIP R, GLP-1 R or GCG R (stable cell lines generated through transfection of the cDNA for human GIP R, GLP-1 R or GCG R and selection of stable clones) were seeded at 30,000 cells/well in 96-well microtiter plates coated with 0.01% poly-L-lysine, and grown for 1 day in culture in 200 μl growth medium (DMEM, 10% FCS, Penicillin (100 IU/ml), Streptomycin (100 μg/ml)). On the day of analysis, growth medium was removed and the cells were washed once with 150 μl Tyrode's buffer (Tyrode's Salts (9.6 g/I), 10 mM HEPES, pH 7.4). […] The Assay buffer was removed and cells are lysed in 80 μl Lysis buffer (0.1% w/v BSA, 5 mM HEPES, 0.3% v/v Tween-20) per well. From each well 10 μl of lysed cells were transferred to a 384-well plate and mixed with 15 μl bead-mix (1 Unit/15 μl anti-cAMP Acceptor Beads, 1 Unit/15 μl Donor Beads, and 1 Unit/15 μl Biotinylated cAMP in Assay Buffer). The plates were mixed and incubated in the dark for an hour at room temperature before measuring using an Envision™ plate reader (Perkin-Elmer).
(§2) The resulting cAMP curves were plotted as absolute cAMP concentrations (nM) over log (test compound concentration) and analyzed using the curve fitting program XLfit.
(§3) Parameters calculated to describe both the potency as well as the agonistic activity of each test compound on the receptors were:
(§4) EC50, a concentration resulting in a half-maximal elevation of cAMP levels, reflecting the potency of the test compound.

human GLP-1 R = molecular target: T2, human GLP-1 R (Homo sapiens, UniProt P43220); experiment: Human GLP-1 receptor (GLP-1-R) activity assay, cAMP induction (AlphaScreen) in HEK293 cells; type: cell-based; conditions: average EC50, cAMP in HEK293 cells expressing human GLP-1 R, read-out: GLP1 R (EC50 in nM)
T2 construct: expressed in transfected cells
T2 sequence (P43220 24-463): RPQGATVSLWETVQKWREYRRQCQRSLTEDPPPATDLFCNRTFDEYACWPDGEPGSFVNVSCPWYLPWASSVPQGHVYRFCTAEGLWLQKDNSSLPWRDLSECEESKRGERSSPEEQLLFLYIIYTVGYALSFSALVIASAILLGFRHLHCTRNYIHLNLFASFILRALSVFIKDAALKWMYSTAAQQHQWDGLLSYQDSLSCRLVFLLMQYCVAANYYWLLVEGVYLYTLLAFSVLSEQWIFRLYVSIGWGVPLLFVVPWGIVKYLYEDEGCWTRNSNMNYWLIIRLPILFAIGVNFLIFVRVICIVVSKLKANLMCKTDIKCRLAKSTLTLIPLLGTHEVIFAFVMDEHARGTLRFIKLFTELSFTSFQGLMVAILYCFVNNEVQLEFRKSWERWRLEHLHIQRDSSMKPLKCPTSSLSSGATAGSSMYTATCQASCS
Method: as §1, §2, §3, §4

human GCG R = human GCG R (Homo sapiens, UniProt P47871); conditions: read-out: GCG R (EC50 in nM); Table 2; average EC50; cAMP in HEK293 cells expressing human GCG R
human GCG R, sequence (P47871 26-477): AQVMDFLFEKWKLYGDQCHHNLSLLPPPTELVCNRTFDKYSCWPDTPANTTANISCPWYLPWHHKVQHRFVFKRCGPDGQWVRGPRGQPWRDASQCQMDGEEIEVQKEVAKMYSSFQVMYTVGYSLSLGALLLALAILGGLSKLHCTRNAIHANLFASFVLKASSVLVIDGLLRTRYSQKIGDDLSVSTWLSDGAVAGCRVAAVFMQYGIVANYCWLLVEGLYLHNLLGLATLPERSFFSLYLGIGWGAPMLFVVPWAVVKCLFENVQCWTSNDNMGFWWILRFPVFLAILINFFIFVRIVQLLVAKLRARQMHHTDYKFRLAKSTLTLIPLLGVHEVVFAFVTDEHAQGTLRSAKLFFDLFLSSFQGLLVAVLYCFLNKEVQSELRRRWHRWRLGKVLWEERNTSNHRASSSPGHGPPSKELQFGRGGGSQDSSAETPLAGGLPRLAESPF
Method: as §1, §2
Parameters calculated to describe both the potency as well as the agonistic activity of each test compound on the receptors were: […]

[1] = Table 2b (most comprehensive data)

Row | SMILES | EC50 (human GIP R; [1]) [nM] | EC50 (human GLP-1 R; [1]) [nM] | EC50 (human GCG R) [nM] | EC50 (human GIP R; Table 2) [nM] | EC50 (human GLP-1 R; Table 2) [nM]
1 | CC[C@H](C)[C@H](NC(=O)[C@H](CO)NC(=O)[C@H](Cc1ccc(O)cc1)NC(=O)[C@H](CC(=O)O)NC(=O)[C@H](CO)NC(=O)[C@@H](NC(=O)[C@H](Cc1ccccc1)NC(=O)[C@@H](NC(=O)CNC(=O)[C@H](CCC(N)=O)NC(=O)C(C)(C)NC(=O)[C@@H](N)Cc1ccc(O)cc1)[C@@H](C)O)[C@@H](C)O)C(=O)N[C@@H](Cc1ccc(O)cc1)C(=O)N[C@@H](CC(C)C)C(=O)N[C@@H](CC(=O)O)C(=O)N[C@@H](CCCCN)C(=O)N[C@@H](CCCCNC(=O)COCCOCCNC(=O)COCCOCCNC(=O)CC[C@H](NC(=O)CCCCCCCCCCCCCCCCC(=O)O)C(=O)O)C(=O)N[C@@H](C)C(=O)N[C@@H](CCC(N)=O)C(=O)N[C@@H](CCCNC(=N)N)C(=O)N[C@@H](C)C(=O)N[C@@H](Cc1ccccc1)C(=O)N[C@H](C(=O)N[C@@H](CCC(=O)O)C(=O)N[C@@H](Cc1c[nH]c2ccccc12)C(=O)N[C@@H](CC(C)C)C(=O)N[C@@H](CC(C)C)C(=O)N[C@@H](C)C(=O)N[C@@H](CCC(N)=O)C(=O)NCC(=O)N1CCC[C@H]1C(=O)N[C@@H](CO)C(=O)N[C@@H](CO)C(=O)NCC(=O)N[C@@H](C)C(=O)N1CCC[C@H]1C(=O)N1CCC[C@H]1C(=O)N1CCC[C@H]1C(=O)N[C@@H](CO)C(N)=O)C(C)C [Compound 33] (H-Y[Aib]QGTFTSDYSIYLDKK([AEEA-AEEA-γGlu-C18 diacid])AQRAFVEWLLAQGPSSGAPPPS-NH2) | 0.0099 | 0.0093 |  |  | 
2 | CC[C@H](C)[C@H](NC(=O)[C@H](CO)NC(=O)[C@H](Cc1ccc(O)cc1)NC(=O)[C@H](CC(=O)O)NC(=O)[C@H](CO)NC(=O)[C@@H](NC(=O)[C@H](Cc1ccccc1)NC(=O)[C@@H](NC(=O)CNC(=O)[C@H](CCC(N)=O)NC(=O)C(C)(C)NC(=O)[C@@H](N)Cc1ccc(O)cc1)[C@@H](C)O)[C@@H](C)O)C(=O)N[C@@H](Cc1ccc(O)cc1)C(=O)N[C@@H](CC(C)C)C(=O)N[C@@H](CCC(=O)O)C(=O)N[C@@H](CCCCN)C(=O)N[C@@H](CCCCN)C(=O)N[C@@H](C)C(=O)N[C@@H](C)C(=O)N[C@@H](Cc1c[nH]cn1)C(=O)N[C@@H](CC(=O)O)C(=O)N[C@@H](Cc1ccccc1)C(=O)N[C@H](C(=O)N[C@@H](CCC(=O)O)C(=O)N[C@@H](Cc1c[nH]c2ccccc12)C(=O)N[C@@H](CC(C)C)C(=O)N[C@@H](CC(C)C)C(=O)N[C@@H](CO)C(=O)N[C@@H](C)C(N)=O)C(C)C [Compound 15] (HELM PEPTIDE1{Y.[Aib].Q.G.T.F.T.S.D.Y.S.I.Y.L.E.K.K.A.A.H.D.F.V.E.W.L.L.S.A.[am]}$$$$V2.0) |  |  | 0.058 | 0.025 | 0.016
3 | CCCCCCCCCCCCCCCCCC(=O)N[C@@H](CCC(=O)NCCOCCOCC(=O)NCCOCCOCC(=O)NCCCC[C@H](NC(=O)[C@H](CCCCN)NC(=O)[C@H](CC(=O)O)NC(=O)[C@H](CC(C)C)NC(=O)[C@H](Cc1ccc(O)cc1)NC(=O)[C@@H](NC(=O)[C@H](CO)NC(=O)[C@H](Cc1ccc(O)cc1)NC(=O)[C@H](CC(=O)O)NC(=O)[C@H](CO)NC(=O)[C@@H](NC(=O)[C@H](Cc1ccccc1)NC(=O)[C@@H](NC(=O)CNC(=O)[C@H](CCC(N)=O)NC(=O)C(C)(C)NC(=O)[C@@H](N)Cc1ccc(O)cc1)[C@@H](C)O)[C@@H](C)O)[C@@H](C)CC)C(=O)N[C@@H](C)C(=O)N[C@@H](CCC(N)=O)C(=O)N[C@@H](CCCNC(=N)N)C(=O)N[C@@H](C)C(=O)N[C@@H](Cc1ccccc1)C(=O)N[C@H](C(=O)N[C@@H](CCC(=O)O)C(=O)N[C@@H](Cc1c[nH]c2ccccc12)C(=O)N[C@@H](CC(C)C)C(=O)N[C@@H](CC(C)C)C(=O)N[C@@H](C)C(=O)N[C@@H](CCC(N)=O)C(=O)NCC(=O)N1CCC[C@H]1C(=O)N[C@@H](CO)C(=O)N[C@@H](CO)C(=O)NCC(=O)N[C@@H](C)C(=O)N1CCC[C@H]1C(=O)N1CCC[C@H]1C(=O)N1CCC[C@H]1C(=O)N[C@@H](CO)C(N)=O)C(C)C)C(=O)O [Compound 35] (H-Y[Aib]QGTFTSDYSIYLDKK([AEEA-AEEA-γGlu-Stearoyl])AQRAFVEWLLAQGPSSGAPPPS-NH2) | 0.01 | 0.012 |  |  | 
4 | CC[C@H](C)[C@H](NC(=O)[C@H](CO)NC(=O)[C@H](Cc1ccc(O)cc1)NC(=O)[C@H](CC(=O)O)NC(=O)[C@H](CO)NC(=O)[C@@H](NC(=O)[C@H](Cc1ccccc1)NC(=O)[C@@H](NC(=O)CNC(=O)[C@H](CCC(N)=O)NC(=O)C(C)(C)NC(=O)[C@@H](N)Cc1ccc(O)cc1)[C@@H](C)O)[C@@H](C)O)C(=O)N[C@@H](Cc1ccc(O)cc1)C(=O)N[C@@H](CC(C)C)C(=O)N[C@@H](CCC(=O)O)C(=O)N[C@@H](CCCCN)C(=O)N[C@@H](CCCCN)C(=O)N[C@@H](C)C(=O)N[C@@H](C)C(=O)N[C@@H](Cc1c[nH]cn1)C(=O)N[C@@H](CC(=O)O)C(=O)N[C@@H](Cc1ccccc1)C(=O)N[C@H](C(=O)N[C@@H](CCC(=O)O)C(=O)N[C@@H](Cc1c[nH]c2ccccc12)C(=O)N[C@@H](CC(C)C)C(=O)N[C@@H](CC(C)C)C(=O)N[C@@H](CO)C(=O)N[C@@H](C)C(N)=O)C(C)C [Compound 14] (HELM PEPTIDE1{Y.[Aib].Q.G.T.F.T.S.D.Y.S.I.Y.L.E.K.K.A.A.H.D.F.V.E.W.L.L.S.A.[am]}$$$$V2.0) |  |  | 0.1 | 0.06 | 0.013
